Experimental data published in the supplement of paper PMC10307832.

Columns and labels:
Assay in all cases: relative viability (nuclei count vs DMSO), 5 days (fraction); higher = more cells survive
Ponatinib = compound: Cc1ccc(C(=O)Nc2ccc(CN3CCN(C)CC3)c(C(F)(F)F)c2)cc1C#Cc1cnc2cccnn12 [Ponatinib]
Method in brief: (§1)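 Following overnight incubation at 37 °C, lung cancer cell lines in 1536-well plates were pinned with five library-drug doses (not always all listed) in √10 steps on vehicle-anchored plates. The cells then spent 5 days without medium change before a combined fix, permeabilisation and Hoechst stain, 4× imaging and MetaXpress nuclear counts. Viability is the treated-to-vehicle ratio of nuclei, taken as the median across plates. Only plates with control CV below 25% and at least one doubling passed.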

Pazopanib = compound: Cc1ccc(Nc2nccc(N(C)c3ccc4c(C)n(C)nc4c3)n2)cc1S(N)(=O)=O [Pazopanib]
Method in brief: as §1

Pazopanib + Pemetrexed = compound: Cc1ccc(Nc2nccc(N(C)c3ccc4c(C)n(C)nc4c3)n2)cc1S(N)(=O)=O [Pazopanib] + Nc1nc2[nH]cc(CCc3ccc(C(=O)N[C@@H](CCC(=O)O)C(=O)O)cc3)c2c(=O)[nH]1 [Pemetrexed] (partner 0.2 µM)
Method in brief: (§2)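 Values are medians from duplicate plates. Each reflects relative viability, defined as the nuclei count of treated wells over that of vehicle wells. Lung cancer cell lines in 1536-well plates were pin-tool dosed one day after seeding with one drug alone or with a fixed anchor-drug dose plus five library-drug doses (not always all listed) in √10 steps, then fixed, stained and imaged at 4× after 5 days.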

Ponatinib + Alpelisib = compound: Cc1ccc(C(=O)Nc2ccc(CN3CCN(C)CC3)c(C(F)(F)F)c2)cc1C#Cc1cnc2cccnn12 [Ponatinib] + Cc1nc(NC(=O)N2CCC[C@H]2C(N)=O)sc1-c1ccnc(C(C)(C)C(F)(F)F)c1 [Alpelisib] (partner 2 µM)
Method in brief: as §2

Cell Line	relative viability (Ponatinib; 0.002 µM)	relative viability (Ponatinib; 0.006325 µM)	relative viability (Ponatinib; 0.06325 µM)	relative viability (Ponatinib; 0.2 µM)	relative viability (Pazopanib; 0.01 µM)	relative viability (Pazopanib; 0.03162 µM)	relative viability (Pazopanib; 0.1 µM)	relative viability (Pazopanib; 0.3162 µM)	relative viability (Pazopanib; 1 µM)	relative viability (Pazopanib + Pemetrexed; first compound 0.01 µM)	relative viability (Pazopanib + Pemetrexed; first compound 0.03162 µM)	relative viability (Pazopanib + Pemetrexed; first compound 0.1 µM)	relative viability (Pazopanib + Pemetrexed; first compound 0.3162 µM)	relative viability (Pazopanib + Pemetrexed; first compound 1 µM)	relative viability (Ponatinib + Alpelisib; first compound 0.002 µM)	relative viability (Ponatinib + Alpelisib; first compound 0.006325 µM)	relative viability (Ponatinib + Alpelisib; first compound 0.06325 µM)	relative viability (Ponatinib + Alpelisib; first compound 0.2 µM)
LXF-289	0.948	0.998	0.984	0.969	1.07	0.989	1.04	0.997	1	1.01	0.899	0.904	0.845	0.848	1.05	1.02	1.04	1.08
NCI-H23	0.862	1	1.15	0.833	0.858	1.04	1.03	1.02	1.29	0.529	0.727	0.702	0.658	0.829	0.61	0.818	0.905	0.666
NCI-H322M	0.96	0.983	0.953	0.853	0.906	0.996	0.92	0.967	1.03	0.703	0.662	0.633	0.623	0.658	0.77	0.694	0.866	0.827
NCI-H358	0.904	1.04	1.01	0.9	1.04	0.927	0.933	0.991	1.15	0.179	0.167	0.168	0.165	0.161	0.886	0.95	0.942	0.772
NCI-H441	0.899	0.925	1.07	0.855	0.931	1.05	0.982	0.905	0.958	0.236	0.274	0.272	0.224	0.253	0.625	0.615	0.808	0.525
NCI-H460	0.943	0.958	0.969	0.985	0.966	1	1.04	1.01	1.05	0.0583	0.0636	0.0629	0.0703	0.0742	0.515	0.548	0.683	0.662
NCI-H520	0.774	0.921	0.832	0.628	0.858	1.01	1.01	1.1	1.11	0.642	0.728	0.768	0.755	0.602	0.747	0.834	0.882	0.66
NCI-H596	0.906	0.924	0.875	0.785	0.815	1.05	0.959	0.904	1.05	0.472	0.494	0.478	0.522	0.528	0.428	0.449	0.495	0.399
NCI-H647	0.818	1.05	1.09	0.769	0.885	1.08	0.895	0.956	1.13	0.174	0.159	0.164	0.153	0.177	1.12	1.25	1.06	0.961
NCI-H650	0.791	0.848	0.858	0.896	0.801	0.982	0.916	0.948	0.946	0.871	0.922	0.863	0.884	0.798	0.964	1.08	1.22	0.99
NCI-H661	0.98	0.942	0.985	0.99	0.939	0.958	1.03	1	0.986	0.863	0.938	0.969	0.955	0.861	0.562	0.79	0.733	0.506
NCI-H838	0.95	1.01	0.994	0.793	0.918	1.01	0.996	1.05	1.14	0.272	0.231	0.265	0.252	0.227	1.01	0.982	1.13	0.812
NCI-H1355	0.923	1.02	1.11	1	0.753	0.952	0.95	1	1.06	0.84	1.02	1.1	1.02	1.08	0.832	0.87	1.01	0.917
NCI-H1395	0.675	0.934	0.91	0.708	0.848	1.03	0.825	1.1	1.2	0.744	0.83	0.886	0.938	0.932	–	1.03	1.09	0.804
NCI-H1437	0.945	0.983	1.01	0.926	1	0.972	0.971	0.976	1.06	0.327	0.333	0.328	0.296	0.321	0.952	0.969	1.17	1.03
NCI-H1563	0.935	0.959	0.99	0.815	0.85	0.997	1.02	0.996	1.07	0.707	0.805	0.691	0.876	0.81	0.998	0.953	1	0.789
